These results are taken from EP4653437A2 (Innovo Therapeutics Inc., priority 2023, dated 2024).

Test [1] deals with T1, human 15-PGDH (Homo sapiens, UniProt P15428).
T1 construct: purchased R&D System 5660-DH
T1 sequence (P15428 1-266): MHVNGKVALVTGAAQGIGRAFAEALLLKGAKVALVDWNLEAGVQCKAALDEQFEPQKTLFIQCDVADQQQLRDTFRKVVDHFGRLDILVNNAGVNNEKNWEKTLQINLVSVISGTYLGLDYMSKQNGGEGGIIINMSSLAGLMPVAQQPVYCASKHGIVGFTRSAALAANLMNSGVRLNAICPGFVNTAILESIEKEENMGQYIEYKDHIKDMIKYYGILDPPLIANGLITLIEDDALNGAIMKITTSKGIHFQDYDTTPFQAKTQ
Kind of test: Evaluation of 15-PGDH inhibitory activity (fluorescence enzyme assay, NAD+/PGE2). Format: biochemical. Particulars: human 15-PGDH enzyme, fluorescence Vmax. The procedure: 15-PGDH inhibition activity of Example compounds was measured as follows. 6.7 ng of human 15-PGDH (R&D System# 5660-DH) enzyme (10 µL) was added to a black 96 well plate, 60 µL of buffer (50 mM Tris-HCl, pH 7.5, 0.01% Tween 20) was added, and 10 µL of 200 µM β-Nicotinamide adenine dinucleotide sodium salt (Sigma, Cat# N0632-5G) was added. 10 µL of (10x) compound solution in DMSO was added and reacted for 10 minutes at room temperature.

Test [2] relates to A549 cells. Kind of test: Measurement of PGE2-increasing activity in A549 cells (IL-1β stimulated, PGE2 quantified in supernatant). Format: cell-based. Particulars: Homo sapiens, 24 h; concentration of 1 µM of each compound; IL-1β treated A549 cells; read-out: Increased PGE2 production in A549 cells. A digest of the protocol: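 PGE2 secreted into the supernatant was measured by immunoassay 24 h after treatment. Before treatment, A549 cells were cultured 24 h in 10% FBS F12K, washed, and placed in serum-free medium containing compound (DMSO 0.1% final) plus or minus IL-1β, incubated at 37 °C, 5% CO2.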

On to `Cc1nc(-c2ncc(-c3cccc4c(C(=O)N5CCCCC5)cnn34)cn2)no1` [Example 317, [7-[2-(5-methyl-1,2,4-oxadiazol-3-yl)pyrimidin-5-yl]pyrazolo[1,5-a]pyridin-3-yl]-(1-piperidyl)methanone], for which the IC50 in test [1] was ≤ 100 nM. Moreover, the fold induction at 1 µM in test [2] is > 1.5.

In the case of `O=C(c1cnn2c(-c3cnc(O)nc3)cccc12)N1CCCCC1` [Example 294, [7-(2-hydroxypyrimidin-5-yl)pyrazolo[1,5-a]pyridin-3-yl]-(1-piperidyl)methanone], the IC50 in test [1] was ≤ 100 nM. For the same molecule, the fold induction at 1 µM in test [2] is < 1.5.

As for `Cn1ccc(NC(=O)c2cncc(-c3cccc4c(C(=O)N5CCCCC5)cnn34)c2)n1` [Example 193, N-(1-methyl-1H-pyrazol-3-yl)-5-(3-(piperidine-1-carbonyl)pyrazolo[1,5-a]pyridin-7-yl)nicotinamide], the IC50 in test [1] is ≤ 100 nM. The fold induction at 1 µM in test [2] is > 1.5.

`Cc1nc(-c2ccc(-c3cccc4c(C(=O)N5CCCCC5)cnn34)cc2)no1` [Example 118, (7-(4-(5-methyl-1,2,4-oxadiazol-3-yl)phenyl)pyrazolo[1,5-a]pyridin-3-yl)(piperidin-1-yl)methanone]: the IC50 in test [1] is ≤ 100 nM. Besides, the fold induction at 1 µM in test [2] was > 1.5.

Take `Cn1nc2ccc(-c3cccc4c(C(=O)N5CCCCC5)cnn34)cn2c1=O` [Example 246, 2-methyl-6-(3-(piperidine-1-carbonyl)pyrazolo[1,5-a]pyridin-7-yl)-[1,2,4]triazolo[4,3-a]pyridin-3(2H)-one]: the IC50 in test [1] was ≤ 100 nM. Moreover, the fold induction at 1 µM in test [2] is > 1.5.

Regarding `O=C(c1cnn2c(-c3cncc(-c4ncon4)c3)cccc12)N1CCCCC1` [Example 374, (7-(5-(1,2,4-oxadiazol-3-yl)pyridin-3-yl)pyrazolo[1,5-a]pyridin-3-yl)(piperidin-1-yl)methanone], the IC50 in test [1] was ≤ 100 nM. The fold induction at 1 µM in test [2] is > 1.5.

For `N#Cc1cc(-c2cccc3c(C(=O)N4CCCCC4)cnn23)ccc1F` [Example 254, 2-fluoro-5-[3-(piperidine-1-carbonyl)pyrazolo[1,5-a]pyridin-7-yl]benzonitrile], in test [1], the IC50 is ≤ 100 nM. The fold induction at 1 µM in test [2] was > 1.5.

`Cn1cnc2ccc(-c3cccc4c(C(=O)N5CCCCC5)cnn34)cc2c1=O` [Example 245, 3-methyl-6-(3-(piperidine-1-carbonyl)pyrazolo[1,5-a]pyridin-7-yl)quinazolin-4(3H)-one]: the IC50 in test [1] is ≤ 100 nM. Also, in test [2], the fold induction at 1 µM was > 1.5.

Consider `Cn1nccc1-c1cc(-c2cccc3c(C(=O)N4CCCCC4)cnn23)cc(N2CC(O)C2)n1` [Example 357, (7-(2-(3-hydroxyazetidin-1-yl)-6-(1-methyl-1H-pyrazol-5-yl)pyridin-4-yl)pyrazolo[1,5-a]pyridin-3-yl)(piperidin-1-yl)methanone], for which, in test [1], the IC50 was ≤ 100 nM. Further, the fold induction at 1 µM in test [2] is > 1.5.

On to `CC(C)NC(=O)c1ccc(-c2cccc3c(C(=O)N4CCCCC4)cnn23)cc1` [Example 60, N-isopropyl-4-(3-(piperidine-1-carbonyl)pyrazolo[1,5-a]pyridin-7-yl)benzamide], for which the IC50 in test [1] is ≤ 100 nM. In test [2], the fold induction at 1 µM is > 1.5.

As for `CC1c2cc(-c3cccc4c(C(=O)N5CCCCC5)cnn34)cnc2C(=O)N1C` (centres unmarked) [Example 280, 5,6-dimethyl-3-(3-(piperidine-1-carbonyl)pyrazolo[1,5-a]pyridin-7-yl)-5,6-dihydro-7H-pyrrolo[3,4-b]pyridin-7-one], the IC50 in test [1] was ≤ 100 nM. In addition, the fold induction at 1 µM in test [2] was > 1.5.

In the case of `O=C1NCc2cc(-c3cccc4c(C(=O)N5CCCCC5)cnn34)ccc21` [Example 143, 5-(3-(piperidine-1-carbonyl)pyrazolo[1,5-a]pyridin-7-yl)isoindolin-1-one], the IC50 in test [1] was ≤ 100 nM. Besides, in test [2], the fold induction at 1 µM was > 1.5.

As for `O=C(Cc1cncc(F)c1)Nc1ccc(-c2cccc3c(C(=O)N4CCCCC4)cnn23)cn1` [Example 409, 2-(5-fluoropyridin-3-yl)-N-(5-(3-(piperidine-1-carbonyl)pyrazolo[1,5-a]pyridin-7-yl)pyridin-2-yl)acetamide], the IC50 in test [1] is ≤ 100 nM. Moreover, the fold induction at 1 µM in test [2] was > 1.5.

With `O=C(c1ccc(-c2cccc3c(C(=O)N4CCCCC4)cnn23)cn1)N1CCOCC1` [Example 74, (7-(6-(morpholine-4-carbonyl)pyridin-3-yl)pyrazolo[1,5-a]pyridin-3-yl)(piperidin-1-yl)methanone], in test [1], the IC50 is ≤ 100 nM. Further, the fold induction at 1 µM in test [2] is > 1.5.

`O=C(c1cnn2c(Nc3cc(=O)[nH]cn3)cccc12)N1CCCCC1` [Example 235, 4-[[3-(piperidine-1-carbonyl)pyrazolo[1,5-a]pyridin-7-yl]amino]-1H-pyrimidin-6-one]: the IC50 in test [1] is ≤ 100 nM. The fold induction at 1 µM in test [2] was > 1.5.

Consider `CC(C)C1CCCN(C(=O)c2cnn3c(-c4ccc5c(c4)C(=O)NC5)cccc23)C1` (centres unmarked) [Example 400, 6-(3-(3-isopropylpiperidine-1-carbonyl)pyrazolo[1,5-a]pyridin-7-yl)isoindolin-1-one], for which the IC50 in test [1] was ≤ 100 nM. Moreover, the fold induction at 1 µM in test [2] was > 1.5.

For the molecule `CC(C)(C)OC(=O)N1CC=C(c2cccc3c(C(=O)N4CCCCC4)cnn23)CC1` [Example 120, tert-butyl 4-(3-(piperidine-1-carbonyl)pyrazolo[1,5-a]pyridin-7-yl)-3,6-dihydropyridine-1(2H)-carboxylate], the IC50 in test [1] was ≤ 100 nM. Moreover, the fold induction at 1 µM in test [2] is > 1.5.

With `Nc1noc2cc(-c3cccc4c(C(=O)N5CCCCC5)cnn34)ccc12` [Example 320, [7-(3-amino-1,2-benzoxazol-6-yl)pyrazolo[1,5-a]pyridin-3-yl]-(1-piperidyl)methanone], in test [1], the IC50 is ≤ 100 nM. Moreover, the fold induction at 1 µM in test [2] was > 1.5.

As for `O=C(c1cnn2c(-c3ccc(NCCc4cccnc4)nc3)cccc12)N1CCCCC1` [Example 332, piperidin-1-yl(7-(6-((2-(pyridin-3-yl)ethyl)amino)pyridin-3-yl)pyrazolo[1,5-a]pyridin-3-yl)methanone], the IC50 in test [1] is ≤ 100 nM. Also, in test [2], the fold induction at 1 µM was > 1.5.

With `O=C(c1cncc(-c2cccc3c(C(=O)N4CCCCC4)cnn23)c1)N1CC2(CC(O)C2)C1` [Example 225, (6-hydroxy-2-azaspiro[3.3]heptan-2-yl)-[5-[3-(piperidine-1-carbonyl)pyrazolo[1,5-a]pyridin-7-yl]-3-pyridyl]methanone], the IC50 in test [1] was ≤ 100 nM. Further, the fold induction at 1 µM in test [2] is > 1.5.

For `N#CCCNC(=O)c1cccc(-c2cccc3c(C(=O)N4CCCCC4)cnn23)c1` [Example 36, N-(2-cyanoethyl)-3-(3-(piperidine-1-carbonyl)pyrazolo[1,5-a]pyridin-7-yl)benzamide], the IC50 in test [1] was ≤ 100 nM. Also, the fold induction at 1 µM in test [2] was > 1.5.

Regarding `O=C(c1cnn2c(-c3cc(-c4noc(=O)[nH]4)cc([N+](=O)[O-])c3)cccc12)N1CCCCC1` [Example 329, 3-(3-nitro-5-(3-(piperidine-1-carbonyl)pyrazolo[1,5-a]pyridin-7-yl)phenyl)-1,2,4-oxadiazol-5(4H)-one], the IC50 in test [1] was ≤ 100 nM. For the same molecule, in test [2], the fold induction at 1 µM was > 1.5.

In the case of `O=C(c1cnn2c(-c3cnc(N4CCOC4=O)c(F)c3)cccc12)N1CCCCC1` [Example 323, 3-(3-fluoro-5-(3-(piperidine-1-carbonyl)pyrazolo[1,5-a]pyridin-7-yl)pyridin-2-yl)oxazolidin-2-one], in test [1], the IC50 was ≤ 100 nM. For the same molecule, the fold induction at 1 µM in test [2] is > 1.5.

Take `O=C(c1cnn2c(-c3ccc(N4CC5CCC4C5)nc3)cccc12)N1CCCCC1` (centres unmarked) [Example 215, (7-(6-(2-azabicyclo[2.2.1]heptan-2-yl)pyridin-3-yl)pyrazolo[1,5-a]pyridin-3-yl)(piperidin-1-yl)methanone]: in test [1], the IC50 is ≤ 100 nM. Further, the fold induction at 1 µM in test [2] was > 1.5.

As for `O=C(Nc1cccnc1)c1ccc(-c2cccc3c(C(=O)N4CCCCC4)cnn23)cn1` [Example 87, 5-(3-(piperidine-1-carbonyl)pyrazolo[1,5-a]pyridin-7-yl)-N-(pyridin-3-yl)picolinamide], the IC50 in test [1] is ≤ 100 nM. Moreover, in test [2], the fold induction at 1 µM is < 1.5.

As to `O=C(c1ccc(-c2cccc3c(C(=O)N4CCCCC4)cnn23)cn1)N1CC(F)(F)C1` [Example 237, (3,3-difluoroazetidin-1-yl)-[5-[3-(piperidine-1-carbonyl)pyrazolo[1,5-a]pyridin-7-yl]-2-pyridyl]methanone], in test [1], the IC50 was ≤ 100 nM. The fold induction at 1 µM in test [2] is > 1.5.

Take `CNC(=O)c1ccc(-c2cccc3c(C(=O)N4CCCCC4)cnn23)cn1` [Example 75, N-methyl-5-(3-(piperidine-1-carbonyl)pyrazolo[1,5-a]pyridin-7-yl)picolinamide]: in test [1], the IC50 is ≤ 100 nM. The fold induction at 1 µM in test [2] is > 1.5.

`O=C(c1cnn2c(-c3ccc(N4CCOC4=O)nc3)cccc12)N1CCCC(F)C1` (centres unmarked) [Example 383, 3-(5-(3-(3-fluoropiperidine-1-carbonyl)pyrazolo[1,5-a]pyridin-7-yl)pyridin-2-yl)oxazolidin-2-one]: the IC50 in test [1] is ≤ 100 nM. For the same molecule, the fold induction at 1 µM in test [2] was > 1.5.

The term IC50 denotes the concentration that inhibits the measured activity by half. High values mean weaker potency, low ones greater potency.
